≈ marks a conversion by molar mass, not a printed value. Where a SMILES comes first, the peptide text is derived from it. Bridges are numbered along the chain shown (N, C = ends). Roman numbers before positions name the chains, in order. [ ]: non-standard residue; d: D form. The star is where a group is joined. dThr(ol) = C[C@H](O)[C@@H](N)CO; Thr(ol) = C[C@@H](O)[C@H](N)CO; Pen = CC(C)(S)[C@H](N)C(=O)O; Tle = CC(C)(C)[C@H](N)C(=O)O; Hiv = CC(C)[C@H](O)C(=O)O; dDab = NCC[C@@H](N)C(=O)O; hSer = N[C@@H](CCO)C(=O)O; NHCH(CH2OH)2 = OCC(CO)N*; Orn = NCCC[C@H](N)C(=O)O; Dab = NCC[C@H](N)C(=O)O; Abu = CC[C@H](N)C(=O)O; Dap = NC[C@H](N)C(=O)O; NHCH2CH2OH = OCCN*
Legend:
Assay type in all cases: cell-based
[1] = tested on: Acinetobacter baumannii 872842; settings: 872842
How it was run: (§1)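 MIC in μg/mL, read as absence of visible growth after 18-20 h incubation at 35° C, by standard CLSI microdilution. Peptides tested in two-fold serial dilution in cation-adjusted MH-II broth containing 0.002% (final) Polysorbate 80, against roughly 10^6 CFU/mL inocula.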

[2] = tested on: Acinetobacter baumannii DSM 30008; settings: DSM 30008
How it was run: as §1

[3] = tested on: Enterobacter cloacae 848840; settings: 848840
How it was run: as §1

[4] = tested on: Klebsiella pneumoniae 968733; settings: 968733
How it was run: as §1

[5] = tested on: Klebsiella pneumoniae SSI #3010; settings: SSI #3010
How it was run: as §1

Escherichia coli 926415 = settings: 926415
How it was run: as §1

[6] = tested on: Pseudomonas aeruginosa ATCC 27853; settings: ATCC 27853
How it was run: as §1

[7] = tested on: Escherichia coli ATCC 25922; settings: ATCC 25922
How it was run: as §1

[8] = tested on: human red blood cells (hRBC); assay: Hemolysis; settings: red cells of human, 1 h, 200
How it was run: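 Percent hemolysis relative to 2% Triton X-100 (100%) and PBS/10% water (0%), from blank-corrected OD540 of diluted supernatants. Peptides tested at 200 μg/mL against 20% (v/v) washed human erythrocytes, 1 h, 37° C, shaking at 300 rpm.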

Row | Compound | MIC [1] [µg/mL] | MIC [2] [µg/mL] | MIC [3] [µg/mL] | MIC [4] [µg/mL] | MIC [5] [µg/mL] | MIC (Escherichia coli 926415) [µg/mL] | MIC [6] [µg/mL] | MIC [7] [µg/mL] | Hemolysis at 200 μg/mL [8] [%]
1 | CC(C)C[C@@H]1NC(=O)[C@H](CCN)NC(=O)[C@H](CCN)NC(=O)[C@H](CC(C)C)NC(=O)[C@@H](CC(C)C)NC(=O)[C@H](CCN)NC(=O)[C@@H](NC(=O)[C@@H](CCN)NC(=O)CC[C@H]2NC(=O)[C@H](CCCN)NC(=O)[C@H](CCN)NC(=O)[C@H](Cc3ccc(O)cc3)NC(=O)[C@@H](NC(=O)[C@@H](O)C(C)C)CSSC[C@@H](C(=O)N[C@H](C(N)=O)[C@@H](C)O)NC(=O)[C@H](C(C)(C)C)NC(=O)[C@H](CO)NC(=O)[C@H](Cc3c[nH]c4ccccc34)NC(=O)[C@H]([C@@H](C)O)NC2=O)CCNC1=O [Ex. 165] (I: H-[Hiv]CY[Dab][Orn][dE]TWS[Tle]CT-NH2 / II: [dDab][Dab][Dab][dL]L[Dab][Dab]L; disulfide I:2-I:11; amide I:6-II:N; lactam II:2-II:C) | 1 (≈ 0.447 µM) | 1 (≈ 0.447 µM) | 4 (≈ 1.79 µM) | 0.5 (≈ 0.223 µM) | 0.25 (≈ 0.112 µM) | 0.125 (≈ 0.0558 µM) | 0.5 (≈ 0.223 µM) | 0.25 (≈ 0.112 µM) | <1
2 | CC(C)C[C@@H]1NC(=O)[C@@H](CC(C)C)NC(=O)[C@H](CCN)NC(=O)[C@@H](NC(=O)[C@H](CCN)NC(=O)[C@@H](NC(=O)[C@H](CCN)NC(=O)CC[C@@H]2NC(=O)[C@H](CCN)NC(=O)[C@H]([C@@H](C)O)NC(=O)[C@@H](NC(=O)[C@@H](O)C(C)C)CSSC[C@@H](C(=O)N[C@@H](Cc3ccc(O)cc3)C(=O)NCCO)NC(=O)[C@H](C(C)(C)C)NC(=O)[C@H](CO)NC(=O)[C@H](Cc3c[nH]c4ccccc34)NC(=O)[C@H](CCO)NC(=O)[C@@H](CCN)NC2=O)[C@@H](C)O)CCNC(=O)[C@H]([C@@H](C)O)NC(=O)[C@H](CCN)NC(=O)[C@H](CCN)NC1=O [Ex. 70] (I: H-[Hiv]CT[Dab]E[dDab][hSer]WS[Tle]CY-NHCH2CH2OH / II: [Dab]T[Dab][Dab][Dab][dL]L[Dab][Dab]T; disulfide I:2-I:11; amide I:5-II:N; lactam II:4-II:C) | 0.25 (≈ 0.102 µM) | 0.0625 (≈ 0.0254 µM) | 0.125 (≈ 0.0509 µM) | 0.25 (≈ 0.102 µM) | 0.125 (≈ 0.0509 µM) | 0.5 (≈ 0.203 µM) | 0.125 (≈ 0.0509 µM) | 0.125 (≈ 0.0509 µM) | <1
3 | CC[C@@H]1NC(=O)[C@@H](CC(C)C)NC(=O)[C@H](CCN)NC(=O)[C@@H](NC(=O)[C@H](CN)NC(=O)[C@@H](NC(=O)[C@H](CCN)NC(=O)CC[C@@H]2NC(=O)[C@H](CCN)NC(=O)[C@H](Cc3ccc(O)cc3)NC(=O)[C@@H](NC(=O)[C@@H](NC(C)=O)C(C)C)CSSC[C@@H](C(=O)N[C@@H](CO)C(N)=O)NC(=O)[C@H](C(C)(C)C)NC(=O)[C@H](CO)NC(=O)[C@H](Cc3c[nH]c4ccccc34)NC(=O)[C@H](CO)NC(=O)[C@@H](CCN)NC2=O)[C@@H](C)O)CCNC(=O)[C@H]([C@@H](C)O)NC(=O)[C@H](CCN)NC(=O)[C@H](CCN)NC1=O [Ex. 136] (I: Ac-VCY[Dab]E[dDab]SWS[Tle]CS-NH2 / II: [Dab]T[Dap][Dab][Dab][dL][Abu][Dab][Dab]T; disulfide I:2-I:11; amide I:5-II:N; lactam II:4-II:C) | 0.03125 (≈ 0.0131 µM) | 0.03125 (≈ 0.0131 µM) | 0.0625 (≈ 0.0262 µM) | 0.0625 (≈ 0.0262 µM) | 0.0625 (≈ 0.0262 µM) | 0.0625 (≈ 0.0262 µM) | 0.25 (≈ 0.105 µM) | 0.03125 (≈ 0.0131 µM) | 3
4 | CC(=O)N[C@@H]1C(=O)N[C@@H]([C@@H](C)O)C(=O)N[C@@H](Cc2ccc(O)cc2)C(=O)N[C@@H](CCN)C(=O)N[C@@H](CCC(=O)N[C@@H](CCN)C(=O)N[C@H](C(=O)N[C@@H](CN)C(=O)N[C@H]2CCNC(=O)[C@H]([C@@H](C)O)NC(=O)[C@H](CCN)NC(=O)[C@H](CCN)NC(=O)[C@H](CC(C)C)NC(=O)[C@@H](CC(C)C)NC(=O)[C@H](CCN)NC2=O)[C@@H](C)O)C(=O)N[C@H](CCN)C(=O)N[C@@H](CCN)C(=O)N[C@@H](Cc2c[nH]c3ccccc23)C(=O)N[C@@H](CCC(=O)O)C(=O)N[C@@H](C(C)(C)C)C(=O)N[C@@H](C)C(=O)N[C@H](C(N)=O)CSSC1(C)C [Ex. 228] (I: Ac-[Pen]TY[Dab]E[dDab][Dab]WE[Tle]AC-NH2 / II: [Dab]T[Dap][Dab][Dab][dL]L[Dab][Dab]T; disulfide I:1-I:12; amide I:5-II:N; lactam II:4-II:C) | 4 (≈ 1.61 µM) | 1 (≈ 0.403 µM) | 8 (≈ 3.22 µM) | 1 (≈ 0.403 µM) | 0.25 (≈ 0.101 µM) | 1 (≈ 0.403 µM) | 0.25 (≈ 0.101 µM) | 0.5 (≈ 0.201 µM) | <1
5 | CC(=O)N[C@@H](CCN)C(=O)N[C@H](C(=O)N[C@H](C(=O)N[C@@H](Cc1ccc(O)cc1)C(=O)N[C@@H](CN)C(=O)N[C@@H](CCC(=O)N[C@@H](CCN)C(=O)N[C@H](C(=O)N[C@@H](CN)C(=O)N[C@H]1CCNC(=O)[C@H]([C@@H](C)O)NC(=O)[C@H](CCN)NC(=O)[C@H](CCN)NC(=O)[C@H](CC(C)C)NC(=O)[C@@H](CC(C)C)NC(=O)[C@H](CCN)NC1=O)[C@@H](C)O)C(=O)N[C@H](CCN)C(=O)N[C@@H](CCN)C(=O)N[C@@H](Cc1c[nH]c2ccccc12)C(=O)N[C@@H](CO)C(=O)N[C@H](C(=O)N[C@@H](C)C(=O)N[C@@H](CO)C(=O)N[C@@H](CCC(=O)O)C(N)=O)C(C)(C)C)[C@@H](C)O)C(C)C [Ex. 248] (I: Ac-[Dab]VTY[Dap]E[dDab][Dab]WS[Tle]ASE-NH2 / II: [Dab]T[Dap][Dab][Dab][dL]L[Dab][Dab]T; amide I:6-II:N; lactam II:4-II:C) | 1 (≈ 0.383 µM) | 0.5 (≈ 0.192 µM) | 4 (≈ 1.53 µM) | 4 (≈ 1.53 µM) | 0.125 (≈ 0.0479 µM) | 0.25 (≈ 0.0958 µM) | 0.25 (≈ 0.0958 µM) | 0.125 (≈ 0.0479 µM) | <1

Further lines, with some results ahead:

Row | MIC [1] [µg/mL] | MIC [2] [µg/mL] | MIC [3] [µg/mL] | MIC [4] [µg/mL] | MIC [5] [µg/mL] | MIC (Escherichia coli 926415) [µg/mL] | MIC [6] [µg/mL] | MIC [7] [µg/mL] | Compound | Hemolysis at 200 μg/mL [8] [%]
6 | 0.125 (≈ 0.0524 µM) | 0.0625 (≈ 0.0262 µM) | 2 (≈ 0.838 µM) | 0.0625 (≈ 0.0262 µM) | 0.25 (≈ 0.105 µM) | 0.125 (≈ 0.0524 µM) | 0.125 (≈ 0.0524 µM) | 0.03125 (≈ 0.0131 µM) | CC(C)C[C@@H]1NC(=O)[C@@H](CC(C)C)NC(=O)[C@H](CCN)NC(=O)[C@@H](NC(=O)[C@H](CCN)NC(=O)[C@@H](NC(=O)[C@H](CCN)NC(=O)CC[C@@H]2NC(=O)[C@H](CCN)NC(=O)[C@H](Cc3ccc(O)cc3)NC(=O)[C@@H](NC(=O)[C@@H](O)C(C)C)CSSC[C@@H](C(=O)N[C@H](CO)[C@@H](C)O)NC(=O)[C@H](C(C)C)NC(=O)[C@H](CO)NC(=O)[C@H](Cc3c[nH]c4ccccc34)NC(=O)[C@H](CCO)NC(=O)[C@@H](CCN)NC2=O)[C@@H](C)O)CCNC(=O)[C@H]([C@@H](C)O)NC(=O)[C@H](CCN)NC(=O)[C@H](CCN)NC1=O [Ex. 78] (I: H-[Hiv]CY[Dab]E[dDab][hSer]WSVC[Thr(ol)] / II: [Dab]T[Dab][Dab][Dab][dL]L[Dab][Dab]T; disulfide I:2-I:11; amide I:5-II:N; lactam II:4-II:C) | <1
7 | 0.0625 (≈ 0.026 µM) | 0.0625 (≈ 0.026 µM) | 0.125 (≈ 0.0521 µM) | 0.25 (≈ 0.104 µM) | 0.125 (≈ 0.0521 µM) | 0.25 (≈ 0.104 µM) | 0.125 (≈ 0.0521 µM) | 0.0625 (≈ 0.026 µM) | CC(=O)N[C@H](C(=O)N[C@H]1CSSC[C@@H](C(=O)N[C@@H](CO)[C@H](C)O)NC(=O)[C@H](C(C)(C)C)NC(=O)[C@H](CO)NC(=O)[C@H](Cc2c[nH]c3ccccc23)NC(=O)[C@H](CO)NC(=O)[C@@H](CCN)NC(=O)[C@H](CCC(=O)N[C@@H](CCN)C(=O)N[C@H](C(=O)N[C@@H](CN)C(=O)N[C@H]2CCNC(=O)[C@H]([C@@H](C)O)NC(=O)[C@H](CCN)NC(=O)[C@H](CCN)NC(=O)[C@H](CC(C)C)NC(=O)[C@@H](CC(C)C)NC(=O)[C@H](CCN)NC2=O)[C@@H](C)O)NC(=O)[C@H](CN)NC(=O)[C@H](Cc2ccc(O)cc2)NC1=O)C(C)C [Ex. 124] (I: Ac-VCY[Dap]E[dDab]SWS[Tle]C[dThr(ol)] / II: [Dab]T[Dap][Dab][Dab][dL]L[Dab][Dab]T; disulfide I:2-I:11; amide I:5-II:N; lactam II:4-II:C) | 2
8 | 0.125 (≈ 0.0537 µM) | 0.0625 (≈ 0.0268 µM) | 0.25 (≈ 0.107 µM) | 0.25 (≈ 0.107 µM) | 0.0625 (≈ 0.0268 µM) | 0.125 (≈ 0.0537 µM) | 0.125 (≈ 0.0537 µM) | 0.0625 (≈ 0.0268 µM) | CC(C)C[C@@H]1NC(=O)[C@@H](CC(C)C)NC(=O)[C@H](CCN)NC(=O)[C@@H](NC(=O)[C@H](CN)NC(=O)[C@@H](NC(=O)[C@H](CCN)NC(=O)CC[C@@H]2NC(=O)[C@@H](CCN)NC(=O)CNC(=O)[C@H](CCN)NC(=O)[C@H](Cc3ccc(O)cc3)NC(=O)[C@@H](NC(=O)[C@@H](O)C(C)C)CSSC[C@@H](C(=O)NC(CO)CO)NC(=O)[C@H](C(C)(C)C)NC(=O)[C@H](CO)NC(=O)[C@H](Cc3c[nH]c4ccccc34)NC2=O)[C@@H](C)O)CCNC(=O)[C@H]([C@@H](C)O)NC(=O)[C@H](CCN)NC(=O)[C@H](CCN)NC1=O [Ex. 174] (I: H-[Hiv]CY[Dab]G[dDab]EWS[Tle]C-{NHCH(CH2OH)2} / II: [Dab]T[Dap][Dab][Dab][dL]L[Dab][Dab]T; disulfide I:2-I:11; amide I:7-II:N; lactam II:4-II:C) | <1

From patent publication US11629171B2, “Beta-hairpin peptidomimetics” (POLYPHOR AG, priority 2017, dated 2023)
